Among the data in ChEMBL document CHEMBL1201862, “PubChem BioAssay data set” (2004) are AC50, IC50 and EC50 values, retold here.

Experiment [1] deals with HEK293. As to the kind of experiment: EBV LMP1 TES2 canonical NF-kB signalling blockers – cell-based, HEK293, luciferase, cherry-pick, dose response (AID 588343). The experiment is classed as functional. The conditions noted are these: Homo sapiens.
In experiment [2] the target is T1, Latent membrane protein 1 (Human herpesvirus 4 (strain B95-8), UniProt P03230).
T1 sequence (P03230 whole entry): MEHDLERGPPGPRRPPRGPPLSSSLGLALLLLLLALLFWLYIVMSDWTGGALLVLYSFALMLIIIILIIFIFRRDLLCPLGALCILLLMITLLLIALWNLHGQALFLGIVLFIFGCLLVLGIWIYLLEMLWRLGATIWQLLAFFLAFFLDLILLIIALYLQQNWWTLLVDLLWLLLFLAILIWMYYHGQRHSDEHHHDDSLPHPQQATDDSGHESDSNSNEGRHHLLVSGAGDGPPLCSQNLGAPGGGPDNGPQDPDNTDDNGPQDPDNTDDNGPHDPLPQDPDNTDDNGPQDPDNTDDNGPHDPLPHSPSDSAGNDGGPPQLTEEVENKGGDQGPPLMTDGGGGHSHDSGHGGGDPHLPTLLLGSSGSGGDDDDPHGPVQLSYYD
Put plainly: LMP1 TES1 pathway selectivity over dsRED control – imaging, HEK293T, dual-color eGFP/dsRED, cherry-picks, selectivity assay for LMP1 NF-kB inhibitor project, dose response (AID 588398). The experiment is classed as functional, cell-based.

Experiment [3] in a line: reduction of Shn3 3'UTR-driven luciferase in osteoblasts – cell-based, Clone20 osteoblasts, firefly luciferase, cherry-picked, dose response (AID 624132).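 Also: firefly luciferase luminescence from reporter carrying the Shn3 3'UTR in osteoblasts.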 The format is functional.
The nature of experiment [4]: loss of viability in HepG2 cells – cell-based, CellTiter-Glo, cherry-picked, cytotoxicity control for Shn3 inhibitor project, dose response (AID 624134). The experiment is classed as functional. In general terms: In ATP-based viability assays light output follows the ATP content of the culture.
The nature of experiment [5]: non-specific 3'UTR reporter inhibition in Clone20-Shn3RL – cell-based, Renilla luciferase, cherry-picked, counter-screen for Shn3 inhibitor project, dose response (AID 624133). The format is functional. For orientation: The purpose of a counterscreen is to sort out artefacts and off-target activity.
Experiment [6] in a line: Fluorescence-based cell-based high throughput dose response assay for inhibitors of the interaction of nucleotide-binding oligomerization domain containing 2 (NOD2) and the receptor-interacting serine-threonine kinase 2 (RIPK2). The format is functional. The conditions noted are these: Homo sapiens.
In experiment [7] the target is T2, Small ubiquitin-related modifier 1 (Homo sapiens, UniProt P63165). Put plainly: SUMO1 protein interaction blockers, potency – biochemical, fluorescence polarization, uHTS hits, dose response (AID 624382). The format is functional. The conditions noted are these: read-out: IC50_Mean.
T2 sequence (P63165 whole entry): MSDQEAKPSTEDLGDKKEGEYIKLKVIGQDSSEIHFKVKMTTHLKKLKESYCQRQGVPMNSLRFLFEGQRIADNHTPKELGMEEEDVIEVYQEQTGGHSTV
Experiment [8] concerns the target T2, Small ubiquitin-related modifier 1. As to the kind of experiment: SUMO1 protein-protein binding blockers, potency – biochemical, FRET, dose response (AID 624383). The format is functional. Particulars: read-out: IC50_Mean.
Experiment [9] in a line: viability inhibitors of stage V gametocytes – luminescence, dose response (AID 1117278).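 Also: gametocytes exposed to compound for 24 hours.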 The experiment is classed as functional, cell-based.
A short description of experiment [10]: viability loss in human Jurkat cells – cell-based, luminescence, cytotoxicity control for P. falciparum gametocyte viability project, dose response (AID 1117277).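 Also: potency reflects loss of cellular ATP meaning fewer viable cells.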 The format is functional.
Experiment [11] deals with Aryl hydrocarbon receptor (Homo sapiens, UniProt P35869). The conditions noted are these: Potency.
Chain of Aryl hydrocarbon receptor (P35869 whole entry): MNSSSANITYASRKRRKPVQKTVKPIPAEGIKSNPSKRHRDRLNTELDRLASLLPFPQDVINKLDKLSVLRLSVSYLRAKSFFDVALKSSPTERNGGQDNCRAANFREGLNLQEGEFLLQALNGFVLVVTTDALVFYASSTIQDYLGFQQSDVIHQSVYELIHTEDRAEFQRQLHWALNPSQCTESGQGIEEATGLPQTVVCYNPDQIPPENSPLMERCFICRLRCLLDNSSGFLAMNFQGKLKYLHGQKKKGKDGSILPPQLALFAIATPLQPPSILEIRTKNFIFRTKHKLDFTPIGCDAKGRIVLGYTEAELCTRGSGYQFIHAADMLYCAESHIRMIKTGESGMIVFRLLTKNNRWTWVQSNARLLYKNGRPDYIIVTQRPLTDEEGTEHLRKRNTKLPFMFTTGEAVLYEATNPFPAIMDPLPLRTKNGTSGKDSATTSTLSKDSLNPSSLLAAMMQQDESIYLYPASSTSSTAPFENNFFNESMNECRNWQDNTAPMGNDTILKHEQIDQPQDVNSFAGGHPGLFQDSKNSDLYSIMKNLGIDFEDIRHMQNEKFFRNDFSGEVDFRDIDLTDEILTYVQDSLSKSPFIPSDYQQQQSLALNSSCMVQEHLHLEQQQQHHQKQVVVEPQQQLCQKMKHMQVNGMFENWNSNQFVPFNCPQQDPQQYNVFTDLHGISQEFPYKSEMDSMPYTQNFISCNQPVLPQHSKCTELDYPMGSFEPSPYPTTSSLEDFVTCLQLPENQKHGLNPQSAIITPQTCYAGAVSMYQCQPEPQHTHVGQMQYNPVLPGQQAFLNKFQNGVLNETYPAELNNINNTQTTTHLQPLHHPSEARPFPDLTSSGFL
In experiment [12] the target is T3, Sentrin-specific protease 1 (Homo sapiens, UniProt Q9P0U3).
T3 sequence (Q9P0U3 whole entry): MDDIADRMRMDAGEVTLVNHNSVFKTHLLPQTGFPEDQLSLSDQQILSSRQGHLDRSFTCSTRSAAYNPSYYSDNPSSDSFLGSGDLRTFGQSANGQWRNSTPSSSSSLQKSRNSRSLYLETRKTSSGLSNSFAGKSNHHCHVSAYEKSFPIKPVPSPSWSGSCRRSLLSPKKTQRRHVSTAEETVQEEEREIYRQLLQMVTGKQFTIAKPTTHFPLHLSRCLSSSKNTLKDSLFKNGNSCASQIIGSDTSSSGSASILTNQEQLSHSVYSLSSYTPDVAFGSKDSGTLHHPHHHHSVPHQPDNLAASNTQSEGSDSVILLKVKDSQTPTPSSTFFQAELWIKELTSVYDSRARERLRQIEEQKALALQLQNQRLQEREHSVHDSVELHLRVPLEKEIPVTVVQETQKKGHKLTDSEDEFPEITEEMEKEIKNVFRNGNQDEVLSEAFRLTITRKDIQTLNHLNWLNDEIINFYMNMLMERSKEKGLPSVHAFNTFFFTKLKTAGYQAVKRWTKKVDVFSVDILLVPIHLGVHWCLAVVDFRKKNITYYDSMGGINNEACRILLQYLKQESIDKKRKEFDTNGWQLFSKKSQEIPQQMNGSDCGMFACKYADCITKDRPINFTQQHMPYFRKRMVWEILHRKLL
As to the kind of experiment: SENP1 catalytic domain blockers, concentration series – biochemical, kinetic FRET, dose response (AID 651697). The format is functional. The conditions noted are these: read-out: IC50_Mean.

For experiment [13], the target named is T4, Probable nicotinate-nucleotide adenylyltransferase (Staphylococcus aureus (strain N315), UniProt P65502). The format is functional, Staphylococcus aureus subsp. aureus N315.
T4 sequence (P65502 whole entry): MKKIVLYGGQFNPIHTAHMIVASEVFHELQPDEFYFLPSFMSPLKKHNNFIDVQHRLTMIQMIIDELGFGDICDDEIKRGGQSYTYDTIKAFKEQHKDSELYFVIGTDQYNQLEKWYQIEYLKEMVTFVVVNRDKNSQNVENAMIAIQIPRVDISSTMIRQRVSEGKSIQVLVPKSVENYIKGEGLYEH
For experiment [14], the target named is T4, Probable nicotinate-nucleotide adenylyltransferase. The format is functional, Staphylococcus aureus subsp. aureus N315. The conditions noted are these: read-out: IC50_Mean.
Experiment [15] has as its target T3, Sentrin-specific protease 1. Put plainly: Dose response confirmation of small molecule inhibitors of the catalytic domain of the SUMO protease, SENP1 in a FRET assay. The format is functional. Particulars: read-out: IC50_Mean.
In experiment [16] the target is Beta Lactamase (Pseudomonas aeruginosa, UniProt Q932Y6).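 Also: confirmatory high-throughput screen measuring VIM-2 metallo-beta-lactamase inhibition by epi-absorbance in dose response.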
Chain of Beta Lactamase (Q932Y6 whole entry): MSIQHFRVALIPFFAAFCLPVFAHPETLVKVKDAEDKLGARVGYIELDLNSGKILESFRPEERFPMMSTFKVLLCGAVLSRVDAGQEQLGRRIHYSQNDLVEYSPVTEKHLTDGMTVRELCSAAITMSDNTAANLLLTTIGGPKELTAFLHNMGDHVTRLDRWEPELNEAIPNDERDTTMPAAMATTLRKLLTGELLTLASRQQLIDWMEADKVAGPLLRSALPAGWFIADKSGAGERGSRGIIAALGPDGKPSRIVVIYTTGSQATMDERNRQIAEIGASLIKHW
Experiment [17] concerns BJ. As to the kind of experiment: BJ-TERT fibroblast viability loss – cell-based, RAS-independent, luminescence, dose response (AID 1933). The experiment is classed as functional. Particulars: Homo sapiens.
Experiment [18] relates to BJ. Put plainly: cells. The experiment is classed as functional, cell-based. The conditions noted are these: Homo sapiens.
For experiment [19], the target named is Beta-lactamase (Pseudomonas aeruginosa, UniProt Q79MP6).
Chain of Beta-lactamase (Pseudomonas aeruginosa, UniProt Q79MP6) (Q79MP6 whole entry): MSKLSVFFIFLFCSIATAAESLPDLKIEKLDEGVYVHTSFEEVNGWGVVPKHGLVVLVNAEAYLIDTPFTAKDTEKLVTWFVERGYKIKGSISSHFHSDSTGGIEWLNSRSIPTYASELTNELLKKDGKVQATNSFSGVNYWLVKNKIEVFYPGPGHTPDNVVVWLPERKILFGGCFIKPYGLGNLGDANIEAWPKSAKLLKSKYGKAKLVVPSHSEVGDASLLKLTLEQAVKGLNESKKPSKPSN
The subject of experiment [20] is BJ. Put plainly: BJ-TERT-LT-ST fibroblast viability loss – cell-based, RAS-independent, luminescence, dose response (AID 1935).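 Also: BJ fibroblasts immortalized with TERT plus LT and ST oncogenes.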 The format is functional. Particulars: Homo sapiens.
Experiment [21] addresses Beta-lactamase (Salmonella choleraesuis (strain SC-B67), UniProt Q5J463).
Experiment [22] is described as follows: DRD fibroblast viability loss – cell-based, non-viral oncogenic, luminescence, dose response (AID 1934). The format is functional. Particulars: Homo sapiens.
In experiment [23] the target is Troponin, cardiac muscle (Homo sapiens, UniProt P19429+P45379+P63316). Put plainly: Fluorescence-based biochemical high throughput dose response assay for activators of the calcium sensitivity of cardiac Regulated Thin Filaments (RTF). [Related pubchem assays (depositor defined):AID493008, AID493018, AID504382, AID504383]. The format is protein-complex assay.
For experiment [24], the target named is T5, Endoribonuclease toxin MazF (Escherichia coli K-12, UniProt P0AE70).
T5 sequence (P0AE70 whole entry): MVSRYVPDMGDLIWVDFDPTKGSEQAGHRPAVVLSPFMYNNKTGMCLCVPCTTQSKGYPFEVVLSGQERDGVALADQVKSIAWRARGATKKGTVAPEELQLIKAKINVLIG
As to the kind of experiment: activation of MazEF endoribonuclease cleavage – biochemical, fluorescence, single-stranded RNA substrate, uHTS hits, dose response (AID 588481). The format is functional.

The target of experiment [25] is T5, Endoribonuclease toxin MazF. As to the kind of experiment: substrate-only fluorescence increase artefacts – biochemical, single-stranded RNase substrate, counter-screen for MazEF activator project, dose response (AID 588502). The format is functional.
Experiment [26] deals with T6, Mitochondrial peptide methionine sulfoxide reductase (Bos taurus, UniProt P54149).
T6 sequence (P54149 whole entry): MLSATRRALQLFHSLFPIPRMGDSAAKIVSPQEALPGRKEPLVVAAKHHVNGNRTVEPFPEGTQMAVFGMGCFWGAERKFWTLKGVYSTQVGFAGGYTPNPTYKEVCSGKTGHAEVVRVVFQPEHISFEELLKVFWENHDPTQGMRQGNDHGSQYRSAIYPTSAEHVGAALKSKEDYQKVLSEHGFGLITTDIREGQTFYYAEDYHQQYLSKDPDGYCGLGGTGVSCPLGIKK
The format is functional.

Activity calls are given as the source filed them.

Chain of Beta-lactamase (Salmonella choleraesuis (strain SC-B67), UniProt Q5J463) (Q5J463 whole entry): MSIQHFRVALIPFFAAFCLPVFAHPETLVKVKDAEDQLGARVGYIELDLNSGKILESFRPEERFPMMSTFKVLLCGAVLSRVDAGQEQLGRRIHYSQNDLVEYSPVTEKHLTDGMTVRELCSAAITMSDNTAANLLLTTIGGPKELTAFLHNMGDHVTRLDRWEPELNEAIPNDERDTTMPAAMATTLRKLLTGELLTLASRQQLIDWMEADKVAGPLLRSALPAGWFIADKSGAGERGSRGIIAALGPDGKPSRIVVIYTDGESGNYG

A word on the AC50: it is the concentration at which the activity in the assay is half-maximal. With `O=C1C(=C(c2ccccc2)N2CCOCC2)Cc2ccccc21`, the AC50 in experiment [1] is 4.87 µM (active); in experiment [2], 2.98 µM (active); in [3] it was 0.999 µM (active); in [4] it was 38.4 µM (active); in experiment [5], 5.97 µM (active). Besides, in experiment [6], the IC50 is 1.34 µM (active).
Consider `Cc1ccc(N2C(=S)SC3CS(=O)(=O)CC32)cc1` (stereo unspecified), for which the IC50 in experiment [7] was > 66.6 µM (inactive); in [8], 100 µM (inactive); in experiment [9] it was > 109 µM (inactive); in experiment [10], > 83.2 µM (inactive).
On to `N#CSCSc1nc2ccccc2s1`, for which the AC50 in [11] is 50.1 µM (inconclusive).
Regarding `CCOC(=O)C1=C(C)N=c2sc(=Cc3cc(Cl)c(OCC(=O)O)c(Cl)c3)c(=O)n2C1c1cccc(OC)c1` (stereo unspecified), the IC50 in [12] is 19.6 µM (active); in experiment [13], 5.18 µM (active); in experiment [14], 19.2 µM (active); in experiment [15], 12.8 µM (active).
In general, EC50 refers to the midpoint of the concentration-response curve. With `CN(/N=C/c1ccc(N(C)C)cc1)C1=NS(=O)(=O)c2ccccc21`, the IC50 in experiment [16] was 15 µM (inactive); in [19] it was 13.4 µM (inactive); in [21], 23 µM (inactive). Moreover, the EC50 in experiment [17] is 27.9 µM (active); in experiment [18], 47 µM (active); in experiment [20], > 150 µM (not active); in experiment [22], 84.8 µM (active); in experiment [23] it was 4.5 µM (active); in experiment [24], > 99 µM (inactive). Moreover, the EC50 in [25] is > 99 µM (inactive).
Regarding `COc1ccc(/C=N\NC(=O)/C(=C\Nc2nccc(C)n2)NC(=O)c2ccccc2)cc1`, in experiment [26], the IC50 was 149 µM (inactive).
